Where “and” joins values, the source holds several entries; their conditions need not be identical. Identical values can stand only once. Toxic doses and inconclusive results are not listed. How the source made its calls: active means survival T/C of 150% or more; inactive means T/C below 125% in these data.
Tested on: P388 leukemia ip, CD2F1 mice, survival T/C
Assay: NCI In Vivo Anticancer Drug Screen. Data for tumor model P388 Leukemia (intraperitoneal) in CD2F1 (CDF1) mice
Settings: endpoint: median survival time, higher = longer survival
Outline: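 Mice carrying the transplanted tumor received test compound or vehicle. Survival was recorded in each group, and the value is the treated-group measurement divided by that of the vehicle-treated control group.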

[1] = dose: 6.25 mg/kg/injection, schedule: Q01DX009 (ip), vehicle: saline with Tween-80
[2] = dose: 12.5 mg/kg/injection, schedule: Q01DX009 (ip), vehicle: saline with Tween-80
[3] = dose: 25.0 mg/kg/injection, schedule: Q01DX009 (ip), vehicle: saline with Tween-80
[4] = dose: 25.0 mg/kg/injection, schedule: Q04DX003 (ip), vehicle: saline with Tween-80
[5] = dose: 50.0 mg/kg/injection, schedule: Q01DX009 (ip), vehicle: saline
[6] = dose: 100.0 mg/kg/injection, schedule: Q01DX009 (ip), vehicle: saline
[7] = dose: 200.0 mg/kg/injection, schedule: Q01DX009 (ip), vehicle: saline

Measured: T/C

Clc1ccc(C(c2ccccc2Cl)C(Cl)Cl)cc1 (configuration not stated)
inactive: dose: 8.0 mg/kg/injection, schedule: Q03HX024 (ip), vehicle: saline 105 % of control | dose: 16.0 mg/kg/injection, schedule: Q03HX008 (ip), vehicle: saline 100 % of control | dose: 16.0 mg/kg/injection, schedule: Q03HX016 (ip), vehicle: saline 100 % of control | dose: 16.0 mg/kg/injection, schedule: Q03HX024 (ip), vehicle: saline 100 % of control | dose: 32.0 mg/kg/injection, schedule: Q03HX008 (ip), vehicle: saline 100 % of control | dose: 32.0 mg/kg/injection, schedule: Q03HX016 (ip), vehicle: saline 100 % of control | dose: 32.0 mg/kg/injection, schedule: Q03HX024 (ip), vehicle: saline 100 % of control | dose: 64.0 mg/kg/injection, schedule: Q01DX009 (ip), vehicle: saline 90 % of control | dose: 64.0 mg/kg/injection, schedule: Q03HX008 (ip), vehicle: saline 100 % of control | dose: 64.0 mg/kg/injection, schedule: Q03HX016 (ip), vehicle: saline 115 % of control | dose: 64.0 mg/kg/injection, schedule: Q03HX024 (ip), vehicle: saline 110 % of control | dose: 64.0 mg/kg/injection, schedule: Q04DX003 (ip), vehicle: saline 104 % of control | dose: 128.0 mg/kg/injection, schedule: Q01DX001 (ip), vehicle: saline 109 % of control | dose: 128.0 mg/kg/injection, schedule: Q01DX009 (ip), vehicle: saline 90 % of control | dose: 128.0 mg/kg/injection, schedule: Q03HX008 (ip), vehicle: saline 100 % of control | dose: 128.0 mg/kg/injection, schedule: Q03HX016 (ip), vehicle: saline 110 % of control | dose: 128.0 mg/kg/injection, schedule: Q03HX024 (ip), vehicle: saline 100 % of control | dose: 128.0 mg/kg/injection, schedule: Q04DX003 (ip), vehicle: saline 100 % of control | dose: 128.0 mg/kg/injection, schedule: Q08DX002 (ip), vehicle: saline 100 % of control | dose: 256.0 mg/kg/injection, schedule: Q01DX001 (ip), vehicle: saline 100 % of control | dose: 256.0 mg/kg/injection, schedule: Q01DX001 (oral), vehicle: saline 104 % of control | dose: 256.0 mg/kg/injection, schedule: Q01DX009 (ip), vehicle: saline 95 % of control | dose: 256.0 mg/kg/injection, schedule: Q01DX009 (oral), vehicle: saline 104 % of control | dose: 256.0 mg/kg/injection, schedule: Q04DX003 (ip), vehicle: saline 100 % of control | dose: 256.0 mg/kg/injection, schedule: Q04DX003 (oral), vehicle: saline 100 % of control | dose: 256.0 mg/kg/injection, schedule: Q08DX002 (ip), vehicle: saline 90 % of control | dose: 512.0 mg/kg/injection, schedule: Q01DX001 (ip), vehicle: saline 109 % of control | dose: 512.0 mg/kg/injection, schedule: Q01DX001 (oral), vehicle: saline 100 % of control | dose: 512.0 mg/kg/injection, schedule: Q01DX009 (ip), vehicle: saline 86 % of control | dose: 512.0 mg/kg/injection, schedule: Q01DX009 (oral), vehicle: saline 109 % of control | dose: 512.0 mg/kg/injection, schedule: Q04DX003 (ip), vehicle: saline 90 % of control | dose: 512.0 mg/kg/injection, schedule: Q04DX003 (oral), vehicle: saline 100 % of control | dose: 512.0 mg/kg/injection, schedule: Q08DX002 (ip), vehicle: saline 100 % of control | dose: 1024.0 mg/kg/injection, schedule: Q01DX001 (ip), vehicle: saline 100 % of control | dose: 1024.0 mg/kg/injection, schedule: Q01DX001 (oral), vehicle: saline 100 % of control | dose: 1024.0 mg/kg/injection, schedule: Q01DX009 (oral), vehicle: saline 100 % of control | dose: 1024.0 mg/kg/injection, schedule: Q04DX003 (ip), vehicle: saline 90 % of control | dose: 1024.0 mg/kg/injection, schedule: Q04DX003 (oral), vehicle: saline 100 % of control | dose: 1024.0 mg/kg/injection, schedule: Q08DX002 (ip), vehicle: saline 104 % of control | dose: 2048.0 mg/kg/injection, schedule: Q01DX001 (oral), vehicle: saline 109 % of control | dose: 2048.0 mg/kg/injection, schedule: Q01DX009 (oral), vehicle: saline 100 % of control | dose: 2048.0 mg/kg/injection, schedule: Q04DX003 (oral), vehicle: saline 100 % of control

O=[N+]([O-])c1ccc(O)c([N+](=O)[O-])c1
inactive: dose: 1.0 mg/kg/injection, schedule: Q01DX005 (ip), vehicle: saline with Tween-80 96 % of control | dose: 2.0 mg/kg/injection, schedule: Q01DX005 (ip), vehicle: saline with Tween-80 108 % of control | dose: 4.0 mg/kg/injection, schedule: Q01DX005 (ip), vehicle: saline with Tween-80 106 % of control | [1] 100 % of control | dose: 8.0 mg/kg/injection, schedule: Q01DX005 (ip), vehicle: saline with Tween-80 104 % of control | [2] 100 % of control | dose: 16.0 mg/kg/injection, schedule: Q01DX005 (ip), vehicle: saline with Tween-80 103 % of control | [3] 90 % of control | [4] 90 % of control | dose: 32.0 mg/kg/injection, schedule: Q01DX005 (ip), vehicle: saline with Tween-80 102 % of control

O=C(Nc1ccc(Cl)cc1)Nc1nnc(-c2ccc(-c3nnc(NC(=O)Nc4ccc(Cl)cc4)o3)cc2)o1
inactive: dose: 60.0 mg/kg/injection, schedule: Q01DX005 (ip), vehicle: saline with Tween-80 104 % of control | dose: 120.0 mg/kg/injection, schedule: Q01DX005 (ip), vehicle: saline with Tween-80 100 % of control | dose: 240.0 mg/kg/injection, schedule: Q01DX005 (ip), vehicle: saline with Tween-80 98 % of control

CCCCC(N)P(=O)(O)O (configuration not stated)
inactive: dose: 12.5 mg/kg/injection, schedule: Q01DX009 (ip), vehicle: saline 87 % of control | dose: 25.0 mg/kg/injection, schedule: Q01DX009 (ip), vehicle: saline 92 % of control | [5] 86 % of control | [6] 97 % of control

O[C@H](c1cc(C(F)(F)F)nc2c(C(F)(F)F)cccc12)[C@@H]1CCCCN1
inactive: dose: 3.13 mg/kg/injection, schedule: Q01DX009 (ip), vehicle: saline with Tween-80 109 % of control | [1] 102 % of control | [2] 116 % of control | [3] 106 % of control

CC(C)CCNc1ncnc2[nH]ncc12
inactive: [4] 95 % of control | dose: 50.0 mg/kg/injection, schedule: Q04DX003 (ip), vehicle: saline with Tween-80 95 % of control | dose: 100.0 mg/kg/injection, schedule: Q04DX003 (ip), vehicle: saline with Tween-80 100 % of control

Cc1ccc(/C=N/NC(=O)C(=O)Nc2ccc(Cl)c([N+](=O)[O-])c2)cc1
inactive: dose: 6.25 mg/kg/injection, schedule: Q01DX005 (ip), vehicle: saline with Tween-80 88 % of control | dose: 12.5 mg/kg/injection, schedule: Q01DX005 (ip), vehicle: saline with Tween-80 95 % of control

Nc1nccc([N+](=O)[O-])n1
inactive: [5] 97 % of control | [6] 99 % of control | [7] 100 % of control

CC1(C)CC(C)(O)N(CCc2ccccc2)C(=S)N1 (configuration not stated)
inactive: dose: 50.0 mg/kg/injection, schedule: Q01DX005 (ip), vehicle: Klucel (hydroxypropylcellulose) (HPC) 106 % of control | dose: 100.0 mg/kg/injection, schedule: Q01DX005 (ip), vehicle: Klucel (hydroxypropylcellulose) (HPC) 98 % of control | dose: 200.0 mg/kg/injection, schedule: Q01DX005 (ip), vehicle: Klucel (hydroxypropylcellulose) (HPC) 98 % of control

O=C(O)C(O)C1CCCCC1 (configuration not stated)
inactive: dose: 50.0 mg/kg/injection, schedule: Q01DX009 (ip), vehicle: saline with Tween-80 104 % of control | dose: 100.0 mg/kg/injection, schedule: Q01DX009 (ip), vehicle: saline with Tween-80 92 % of control

CNc1nc(N)nc(N)c1N1CCN(c2ccc(C(=O)O)cc2)CC1
inactive: dose: 60.0 mg/kg/injection, schedule: Q01DX005 (ip), vehicle: Klucel (hydroxypropylcellulose) (HPC) 91 % of control | dose: 120.0 mg/kg/injection, schedule: Q01DX005 (ip), vehicle: Klucel (hydroxypropylcellulose) (HPC) 93 % of control | dose: 240.0 mg/kg/injection, schedule: Q01DX005 (ip), vehicle: Klucel (hydroxypropylcellulose) (HPC) 87 % of control

CC1=CC(C)=Nc2ccccc2N1
inactive: [5] 103 % of control | [6] 99 % of control and 101 % of control | [7] 94 % of control
